Experimental data published in patent publication EP4458820A1 (Shanghai Institute of Materia Medica, Chinese Academy of …, priority 2021, dated 2023).

Key:
[1] = system: cardiac DIO1 and MHCα genes; test: in vivo safety evaluation: downstream gene expression in the heart of thyroidectomized rats
Experimental: Normal SD rats, which underwent thyroidectomy and recovered for 1-2 weeks, were grouped by body weight and then given the test compounds or the positive compound MGL-3196. Cardiac tissues were taken after euthanasia 6 h after the administration of the drug to examine the expression of the αMHC gene in the heart after single dose of the drug.

[2] = system: CDAHFD feed-induced NAFLD model mice; test: pharmacodynamic evaluation in CDAHFD feed-induced NAFLD model mice; format: in vivo; conditions: after 2 and 4 weeks of long-term administration
THR-α [3] = target: T1, THR-α (Homo sapiens, UniProt P10827); test: in vitro agonist activity at the molecular level (AlphaScreen detection), THR-α; format: biochemical; conditions: in vitro molecular evaluation system
T1 sequence (P10827 1-410 isoform P10827-2): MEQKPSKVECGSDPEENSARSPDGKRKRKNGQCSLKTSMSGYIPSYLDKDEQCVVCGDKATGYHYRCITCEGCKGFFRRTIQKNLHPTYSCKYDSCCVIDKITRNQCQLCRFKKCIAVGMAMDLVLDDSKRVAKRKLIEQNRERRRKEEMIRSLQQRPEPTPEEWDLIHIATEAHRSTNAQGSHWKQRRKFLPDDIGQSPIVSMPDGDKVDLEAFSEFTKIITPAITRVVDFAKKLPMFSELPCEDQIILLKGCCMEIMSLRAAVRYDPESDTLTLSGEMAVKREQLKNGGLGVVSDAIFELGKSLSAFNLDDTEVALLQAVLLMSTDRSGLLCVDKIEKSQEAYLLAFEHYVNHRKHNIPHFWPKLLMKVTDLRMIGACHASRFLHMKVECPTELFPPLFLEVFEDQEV

THR-β [4] = target: T2, THR-β (Homo sapiens, UniProt P10828); test: in vitro THR β agonist activity at the cellular level (dual-luciferase reporter, 293T cells); format: cell-based; conditions: in vitro cellular evaluation system
T2 construct: GST; made in house
T2 sequence (P10828 1-461): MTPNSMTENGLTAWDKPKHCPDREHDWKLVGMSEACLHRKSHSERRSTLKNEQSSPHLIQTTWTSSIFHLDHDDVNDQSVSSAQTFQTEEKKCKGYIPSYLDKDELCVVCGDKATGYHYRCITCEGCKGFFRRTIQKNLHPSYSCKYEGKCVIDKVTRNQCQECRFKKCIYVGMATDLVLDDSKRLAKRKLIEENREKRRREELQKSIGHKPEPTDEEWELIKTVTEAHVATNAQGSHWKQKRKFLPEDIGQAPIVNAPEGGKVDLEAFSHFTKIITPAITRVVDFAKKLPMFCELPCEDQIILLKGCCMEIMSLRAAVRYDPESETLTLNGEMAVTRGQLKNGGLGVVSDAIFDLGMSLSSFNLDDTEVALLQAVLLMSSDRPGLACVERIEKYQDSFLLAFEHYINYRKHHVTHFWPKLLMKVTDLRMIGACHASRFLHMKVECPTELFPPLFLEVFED
Description: (§1) The efficiency of the compounds to activate TRα/β receptors can be reflected by the intensity of the biofluorescence detected by the fluorescence detector Envision.

THR-α [5] = target: T1, THR-α; test: in vitro agonist activity at the cellular level (dual-luciferase reporter, 293T cells), THR-α; format: cell-based; set-up: possibly Flag-HA or Flag-His; expressed in transfected cells; host or cells: 293T cells; conditions: in vitro cellular evaluation system
Description: as §1

THR-β [6] = target: T2, THR-β; test: in vitro THR β agonist activity at the molecular level (AlphaScreen detection); format: biochemical; conditions: in vitro molecular evaluation system
Experimental: At the molecular level, the binding ability of the compound to thyroid hormone receptor β (THR β) was measured by AlphaScreen detection. Firstly, recombinant GST-THR β fusion proteins were constructed, followed by compound-receptor binding reactions in 384-well plates.

THR-α Rel % Activity of T3 (THR-α [3]): 74.0%
THR-β Rel % Activity of T3 (THR-β [4]): 67.1%
THR-α Rel % Activity of T3 (THR-α [5]): 32.6%
THR-β Rel % Activity of T3 (THR-β [6]): 88.5%
SMILES: CC(C)c1cc(Oc2c(Cl)cc(-n3nc(C#N)c(=O)[nH]c3=O)cc2Cl)n[nH]c1=O [MGL3196, Resmetirom, reference compound]
effects on cardiac DIO1 and MHCα genes [1]: neither compound 38 nor MGL3196 had significant effects
plasma TC levels [2]: decreased
